For experiment [1], the system named is CHO-K1 cell line. Kind of experiment: Change in intracellular Ca2+ concentration in non-transfected CHO-K1 host cell line (negative control cells). Type of experiment: cell-based, Chinese hamster. To be noted: for increase in intracellular Ca2+ concentration: CHO-K1 cell line not transfected, peptide final concentration 1 nM (Example 5). The protocol:
(§1) A specific method for measuring a change in intracellular Ca^2+ concentration in the HA-ph01207#10-6 cell line produced by CCK-8S (SEQ ID NO: 14) and the results thereof are described below. HA-ph01207#10-6 cell line was seeded in 96-well plates (plates with a black wall surface and transparent bottom) at a cell count of 2×10^4/100 μL medium/well and cultured at 37° C. in the presence of 5% CO2. DMEM/F12 (Gibco) containing 10% fetal calf serum (Moregate BioTech) was used as medium. The next day, 50 μL of medium was extracted from each well, and 50 μL of loading buffer was added each well and allowed to react at room temperature for 1.5 h so as to incorporate fluorescent dye contained in the loading buffer into cells. The loading buffer was prepared by dissolving component A of the FLIPR Calcium 3 Assay Kit (Molecular Devices Corp.) with a solution in which 0.1 mL of 500 mM probenecid (Sigma) was added to 9.9 mL of component B. After the reaction, a change in the fluorescence intensity upon addition of CCK-BS (Peptide Institute, Osaka, Japan) was measured along with time for each well using FLEXstation (Molecular Devices Corp.). Measurement was also performed in a similar manner for CCK-8NS (Peptide Institute, Osaka, Japan) and CCK-4 (Peptide Institute). For CCK-8S (SEQ ID NO: 14), 0.52 mg thereof was dissolved with 4.5 mL of 1% NaHCO3 (Wako) to prepare a 0.1 mM concentration solution. For CCK-8NS, after dissolving 0.53 mg thereof with 0.50 mL of dimethylsulfoxide (DMSO, Sigma), 4.50 mL of redistilled water was added thereto to prepare a 0.1 mM concentration solution. For CCK-4, after dissolving 0.54 mg thereof with 0.46 mL of DMSO, 4.09 mL of redistilled water was added thereto to prepare a 0.2 mM concentration solution. CCK-8S (SEQ ID NO: 14), CCK-8NS and CCK-4 were each diluted with phosphate buffered saline (PBS) to make a 5 nM solution, and measurement was performed after adding 25 μL (final concentration 1 nM) of each. As a positive control that induces an increase in intracellular Ca^2+ concentration, A23187 (Calbiochem, Calif.) was used at a final concentration of 10 μM. As a negative control, CHO-K1 cell line that was used as a host in production of the HA-ph01207#10-6 cell line was used. Since the ph01207 expression vector was not transfected into the CHO-K1 cell line, the ph01207 gene product was not expressed therein.
(§2) Using stably expressing cell line of a splicing variant of ph01207 gene, a change in intracellular calcium concentration (Ca^2+) caused by CCK-8S was measured using the same method described in Example 5. As the stably expressing cell line of the splicing variant of ph01207 gene, the stably expressing cell line constructed in Example 7 was used. Further, using stable expressing cell line of hk01941 gene, the same investigation was conducted. As the stably expressing cell line of hk01941 gene, the stably expressing cell line constructed in Example 7 was used. As a control, a host cell which was not transfected with 7tmHR expression vector or hk01941 expression vector was used.
(§3) The cell line was seeded in 96-well plates (plates with a black wall surface and transparent bottom) at 3×10^4 cells/100 μL medium/well and cultured overnight at 37° C. in the presence of 5% CO2. The next day, 50 μL of the medium was extracted from each well, and 50 μL of loading buffer was added to each well to allow for a reaction at room temperature for 1 h so as to incorporate fluorescent dye contained in the loading buffer into cells. The loading buffer was prepared by the same method as described in Example 5. After the reaction, a change in the fluorescence intensity upon addition of CCK-8S was measured along with time for each well using FLEXstation (Molecular Devices Corp.). CCK-8S was used at a final concentration of 10 μM-1 μM. Further, A23187 was used at a final concentration of 20 μM as a positive control of the assay. […]

Experiment [2] has as its target T1, 7tmHR gene product (Homo sapiens, UniProt O60241).
T1 construct: three kinds of full length cDNA clones were obtained; expressed in transfected cells; host or cells: CHO-K1 (7tmHR/pcDNA3.1)
Kind of experiment: Change in intracellular Ca2+ concentration in 7tmHR stably expressing cell line. Type of experiment: cell-based. To be noted: A23187 20 μM. The protocol: as §2
as §3, with “Corp.).” for “Corp.). CCK-8S was used at a final concentration of 10 μM-1 μM. Further, A23187 was used at a final concentration of 20 μM as a positive control of the assay.”

Experiment [3] relates to hk01941 gene product. Kind of experiment: Change in intracellular Ca2+ concentration in hk01941 stably expressing cell line. Format: cell-based, human. To be noted: A23187 20 μM. The protocol: as §2
as §3, with “Corp.).” for “Corp.). CCK-8S was used at a final concentration of 10 μM-1 μM. Further, A23187 was used at a final concentration of 20 μM as a positive control of the assay.”

In experiment [4] the test system is variant 3 gene product. Put plainly: Change in intracellular Ca2+ concentration in variant 3 stably expressing cell line. Format: cell-based, human. To be noted: A23187 20 μM. The protocol:
The function of variant 3 gene was analyzed using stably expressing cell line of variant 3 gene by investigating a change in intracellular calcium concentration (Ca^2+) caused by CCK-8S. The change in intracellular calcium concentration (Ca^2+) was measured using the same method described in Example 5. The stably expressing cell line of variant 3 gene was prepared using the variant 3 gene expression vector constructed in Example 7 by the method similar to the method described in Example 7.
The cell line was seeded in 96-well plates (plates with a black wall surface and transparent bottom) at 3×10^4 cells/100 μL medium/well and cultured overnight at 37° C. in the presence of 5% CO2. The next day, 50 μL of the medium was exited from each well, and 50 μL of loading buffer was added to each well to allow for a reaction at room temperature for 1 h so as to incorporate fluorescent dye contained in the loading buffer into cells. The loading buffer was prepared by the same method as described in Example 5. After the reaction, a change in the fluorescence intensity upon addition of CCK-8S was measured along with time for each well for 40 sec using FLEXstation (Molecular Devices Corp.). CCK-8S was used at a final concentration of 10 pM-1 μM. Further, A23187 was used at a final concentration of 20 μM as a positive control of the assay.

The target in experiment [5] is T2, protein encoded by ph01207 (Homo sapiens, UniProt O60241, DEL308-362).
T2 construct: expressed in transfected cells; host or cells: CHO-K1 (HA-ph01207#10-6, FERM BP-10101)
T2 sequence (O60241 with tags, fused parts or gaps DEL308-362): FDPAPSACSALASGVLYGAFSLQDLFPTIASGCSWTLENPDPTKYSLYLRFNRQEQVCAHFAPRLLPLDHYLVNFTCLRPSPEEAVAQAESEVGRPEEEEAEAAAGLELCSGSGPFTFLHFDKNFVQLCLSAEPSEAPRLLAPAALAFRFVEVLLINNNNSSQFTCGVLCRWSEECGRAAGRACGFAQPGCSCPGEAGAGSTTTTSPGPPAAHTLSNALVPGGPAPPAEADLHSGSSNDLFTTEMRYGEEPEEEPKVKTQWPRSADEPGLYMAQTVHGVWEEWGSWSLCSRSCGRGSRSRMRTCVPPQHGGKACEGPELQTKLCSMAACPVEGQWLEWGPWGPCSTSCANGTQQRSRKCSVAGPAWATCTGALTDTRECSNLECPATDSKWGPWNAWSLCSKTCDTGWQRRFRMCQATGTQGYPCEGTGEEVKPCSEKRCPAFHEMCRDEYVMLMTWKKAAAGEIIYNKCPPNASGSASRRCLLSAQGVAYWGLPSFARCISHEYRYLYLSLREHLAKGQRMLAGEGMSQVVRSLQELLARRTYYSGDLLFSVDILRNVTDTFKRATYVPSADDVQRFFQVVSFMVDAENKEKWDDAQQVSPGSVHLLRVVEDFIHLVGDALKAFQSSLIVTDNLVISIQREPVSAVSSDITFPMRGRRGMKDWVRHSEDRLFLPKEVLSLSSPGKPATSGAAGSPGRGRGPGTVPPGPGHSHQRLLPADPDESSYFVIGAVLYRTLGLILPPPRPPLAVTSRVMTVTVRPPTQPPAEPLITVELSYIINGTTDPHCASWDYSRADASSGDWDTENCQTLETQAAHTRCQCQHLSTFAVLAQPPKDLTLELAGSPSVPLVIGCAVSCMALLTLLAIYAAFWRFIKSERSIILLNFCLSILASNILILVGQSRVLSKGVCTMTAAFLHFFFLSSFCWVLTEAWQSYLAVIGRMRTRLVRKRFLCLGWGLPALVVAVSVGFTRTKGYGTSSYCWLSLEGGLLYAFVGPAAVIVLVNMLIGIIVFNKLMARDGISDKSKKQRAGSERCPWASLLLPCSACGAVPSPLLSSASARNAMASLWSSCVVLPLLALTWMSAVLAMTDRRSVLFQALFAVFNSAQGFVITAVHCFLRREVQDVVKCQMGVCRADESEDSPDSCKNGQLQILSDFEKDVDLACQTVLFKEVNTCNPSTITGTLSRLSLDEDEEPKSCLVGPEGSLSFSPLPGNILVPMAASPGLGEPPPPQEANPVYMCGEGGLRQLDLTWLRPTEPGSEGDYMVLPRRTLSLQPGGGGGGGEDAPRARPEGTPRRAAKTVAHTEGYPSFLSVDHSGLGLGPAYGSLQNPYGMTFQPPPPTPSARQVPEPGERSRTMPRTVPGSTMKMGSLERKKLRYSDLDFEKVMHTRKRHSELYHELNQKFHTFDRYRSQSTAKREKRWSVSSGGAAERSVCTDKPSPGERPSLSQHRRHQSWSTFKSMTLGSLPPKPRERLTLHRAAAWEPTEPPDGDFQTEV
Put plainly: Change in intracellular Ca2+ concentration in HA-ph01207#10-6 cell line (FLIPR Calcium 3, FLEXstation). Format: cell-based. Particulars: for rise in the intracellular Ca2+ concentration: peptide final concentration 1 nM. The protocol:
Changes in intracellular calcium (Ca^2+) concentrations caused by CCK-8S(SEQ ID NO: 14), CCK-8NS and CCK-4 were determined using the […] expression cell lines prepared in Example 2. The cell lines prepared in Example 2 are eight lines in which the protein encoded by ph01207 expresses as a FLAG-tag fusion protein and four lines in which the protein encoded by ph01207 expresses as a HA-tag fusion protein. Among these, in this example HA-ph01207#10-6 cell line was used as a line obtained by cellular cloning of one cell line that stably expresses the protein encoded by ph01207 as a HA-tag fusion protein. Although CCK-8NS is a CCK octapeptide consisting of the same amino acid sequence as CCK-8S (SEQ ID NO: 14), the seventh tyrosine residue from the C-terminal thereof is not sulfated. CCK-4 is a tetrapeptide consisting of the amino acid residues from the C-terminus to the fourth amino acid residue of CCK-8S (SEQ ID NO: 14).
as §1, with “CCK-8S (SEQ ID NO: 14), CCK-8NS and CCK-4 were each diluted with phosphate buffered saline (PBS) to make a 5 nM solution, and measurement was performed after adding 25 μL (final concentration 1 nM) of each. As a positive control that induces an increase in intracellular Ca^2+ concentration, A23187 (Calbiochem, Calif.) was used at a final concentration of 10 μM. As a negative control, CHO-K1 cell line that was used as a host in production of the HA-ph01207#10-6 cell line was used. Since the ph01207 expression vector was not transfected into the CHO-K1 cell line, the ph01207 gene product was not expressed therein.” left out

For experiment [6] the following is noted: CCK-8S administered to diabetes patients (Bo, A. et al., 2000); cited from earlier work.

T1 sequence (O60241 13-1585): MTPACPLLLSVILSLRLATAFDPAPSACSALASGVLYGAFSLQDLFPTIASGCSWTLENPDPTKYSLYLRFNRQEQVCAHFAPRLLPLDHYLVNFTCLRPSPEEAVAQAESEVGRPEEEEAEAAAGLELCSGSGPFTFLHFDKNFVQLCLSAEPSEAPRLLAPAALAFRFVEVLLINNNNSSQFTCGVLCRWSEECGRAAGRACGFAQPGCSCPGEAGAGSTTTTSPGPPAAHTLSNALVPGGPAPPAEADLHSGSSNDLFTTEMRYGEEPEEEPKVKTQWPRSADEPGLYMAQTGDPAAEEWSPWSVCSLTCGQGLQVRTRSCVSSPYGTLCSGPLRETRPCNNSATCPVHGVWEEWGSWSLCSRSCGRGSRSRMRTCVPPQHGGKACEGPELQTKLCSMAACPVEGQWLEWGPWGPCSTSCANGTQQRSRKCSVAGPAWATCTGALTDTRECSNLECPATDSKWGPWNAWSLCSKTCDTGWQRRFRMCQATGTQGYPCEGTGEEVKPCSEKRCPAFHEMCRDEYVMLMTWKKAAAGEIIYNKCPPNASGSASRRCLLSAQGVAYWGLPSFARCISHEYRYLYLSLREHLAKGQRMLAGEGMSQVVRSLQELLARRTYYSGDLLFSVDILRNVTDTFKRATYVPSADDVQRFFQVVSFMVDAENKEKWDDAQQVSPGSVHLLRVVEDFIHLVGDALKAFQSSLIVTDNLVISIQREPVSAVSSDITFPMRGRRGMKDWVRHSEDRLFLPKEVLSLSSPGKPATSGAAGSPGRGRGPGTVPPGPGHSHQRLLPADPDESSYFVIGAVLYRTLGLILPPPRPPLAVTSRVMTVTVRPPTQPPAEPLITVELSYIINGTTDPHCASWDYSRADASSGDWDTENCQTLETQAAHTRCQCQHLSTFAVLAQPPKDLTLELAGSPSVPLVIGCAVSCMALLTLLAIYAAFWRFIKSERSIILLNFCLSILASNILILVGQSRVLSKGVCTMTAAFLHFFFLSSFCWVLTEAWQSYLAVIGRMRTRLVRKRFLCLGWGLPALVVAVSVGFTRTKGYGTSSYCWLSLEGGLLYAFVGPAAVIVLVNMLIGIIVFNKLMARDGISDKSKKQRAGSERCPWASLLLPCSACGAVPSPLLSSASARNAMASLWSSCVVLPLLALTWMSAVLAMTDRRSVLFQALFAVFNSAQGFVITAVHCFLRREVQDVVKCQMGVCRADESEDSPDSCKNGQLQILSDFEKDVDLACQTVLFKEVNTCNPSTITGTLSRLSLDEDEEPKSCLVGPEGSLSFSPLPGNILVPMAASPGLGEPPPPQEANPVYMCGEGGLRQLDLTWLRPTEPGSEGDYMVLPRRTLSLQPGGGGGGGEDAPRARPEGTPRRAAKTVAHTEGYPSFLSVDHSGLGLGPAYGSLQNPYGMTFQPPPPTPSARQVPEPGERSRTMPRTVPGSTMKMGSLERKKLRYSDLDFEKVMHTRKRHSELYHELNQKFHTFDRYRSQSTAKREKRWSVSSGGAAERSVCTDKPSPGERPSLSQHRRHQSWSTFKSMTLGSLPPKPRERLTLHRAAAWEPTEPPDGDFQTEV

With `CNc1ccc2oc(C[C@H]3O[C@@]4(CC[C@H]3C)O[C@H]([C@H](C)C(=O)c3ccc[nH]3)[C@H](C)C[C@H]4C)nc2c1C(=O)O` [A23187], the “response (intracellular Ca2+) to positive control” value in experiment [1] (CHO-K1 host cell, A23187 20 μM (Examples 8 and 9)) was “observed similarly”; in experiment [2], “observed similarly”; in experiment [3], “observed similarly”; in experiment [4] it was “observed similarly”.
Regarding “CCK-4: tetrapeptide consisting of the amino acid residues from the C-terminus to the fourth residue of CCK-8S”, the “rise in the intracellular Ca2+ concentration” value in experiment [5] is given as “not observed”. In addition, the “increase in intracellular Ca2+ concentration” value in experiment [1] is on record as “no increase”.
The like results for CCK-8 Nonsulfated form [CCK-8NS] were, in that order, “not observed” and “no increase”.
“cholecystokinin octapeptide sulfated form [CCK-8S]”: the “level of increase in the intracellular Ca2+ concentration compared with that produced by A23187” value in experiment [5] (1 nM CCK-8S vs 10 μM A23187) was “roughly equal”. In addition, the “rise in the intracellular Ca2+ concentration” value in experiment [5] was “rose”. The “increase in intracellular Ca2+ concentration” value in experiment [1] is on record as “no increase”. Also, in experiment [1] (host cell not transfected with variant 3 expression vector, CCK-8S (Example 9)), the “change in intracellular calcium concentration” value is listed as “not observed”. In experiment [1] (host cell transfected with neither 7tmHR nor hk01941 expression vector, CCK-8S (Example 8)), the “change in intracellular calcium concentration” value is “not observed”. Moreover, in experiment [6], the “increase in insulin amounts” value is reported as “promoted” and the “increase in postcibal glucose amount” value is given as “suppressed”.

The values above are taken from patent publication US7977069B2, “DNA encoding a CCK-8S G-protein coupled receptor, and vectors, transformants, cell kits, and methods employing such DNA” (Daiichi Sankyo Company, Limited, priority 2003, dated 2011).
